Assay results as given in US20040143012A1, “Method for stabilising particle size distribution of powder active principle dispersed in a liquid and uses thereof” (priority 2000, published 2004).
Several values for one entry are separate records, joined by “and”; a condition that tells them apart may be missing. Equal values may be shown once. Read-outs that look alike come from different tables or passages of the source.

Key:
[1] = oral, cited from earlier work
[2] = isotretinoin powder, supplier's statement; cited from earlier work
[3] = Particle size analysis of isotretinoin powder by laser scattering granulometer, before and after dispersion in liquid media; type: physicochemical
Experimental: The ability of glycol ethers to stabilize the particle size of an active principle was established by means of studies aimed at comparing the particle size of an isotretinoin powder supposed to have, according to its supplier, a median of 20 μm, before and after dispersion in 5 different liquid media consisting, respectively, of:
The particle size of the isotretinoin powder before dispersion in the liquid media, ie in dry form, was analyzed on samples of 2 g of powder (the vehicle in this case being compressed air), whereas its particle size after dispersion in the various liquid media was analyzed on samples of 20 ml containing 2% (w/v) of this powder, except in the case of the oily mixture, in which the content of isotretinoin powder in the samples was 6.5% (w/v).
All the particle size analyses were carried out using a Mastersizer Banc Long laser scattering granulometer (Malvern Instruments Ltd company) and an MS1 sampler from the same company.

For `COc1cc(C)c(/C=C/C(C)=C/C=C/C(C)=C/C(=O)O)c(C)c1C` [acitretin], the bioavailability ([1]; gel capsules of 10 and 25 mg, on average) is given as 60%.

In the case of `CC1=C(/C=C/C(C)=C/C=C/C(C)=C\C(=O)O)C(C)(C)CCC1` [isotretinoin, 13-cis-retinoic acid], the “Median particle size according to supplier” value [2] is listed as 20 μm, the “Median of the particle size” value ([3]; after dispersion in Labrafac PG (propylene glycol dicaprylocaprate), 2% (w/v)) is listed as 193.15 μm and the “Median of the particle size” value ([3]; after dispersion in Labrasol (caprylocapric macrogolglycerides), 2% (w/v)) is listed as 139.77 μm. The “Median of the particle size” value ([3]; after dispersion in Transcutol (diethylene glycol monoethyl ether, DGME), 2% (w/v)) was 20.86 μm, the “Median of the particle size” value ([3]; after dispersion in oily mixture of the Roaccutane type (yellow wax, soybean oils, partially hydrogenated plant oil, medium-chain triglyceride), 6.5% (w/v)) was 82.92 μm and the “Median of the particle size” value ([3]; isotretinoin powder in dry form, before dispersion (2 g samples, compressed air)) was 20 μm and 19.49 μm. For the same molecule, the bioavailability ([1]; soft capsules (Roaccutane), suspension in oily vehicle) was “about 25%”.
